Assay results reported in ChEMBL document CHEMBL5137043, “trans, trans-2-C-Aryl-3,4-dihydroxypyrrolidines as potent and selective β-glucosidase inhibitors: Pharmacological chaperones for Gaucher disease” (Eur J Med Chem, 2022).

Columns and labels:
[1] = test system: Penicillium decumbens; experiment: Inhibition of Penicillium decumbens alpha-L-rhamnosidase assessed as reduction of p-nitrophenol release using p-nitrophenyl-glycoside as substrate at 1000 uM by spectrophotometric analysis
[2] = test system: Oryza sativa; experiment: Inhibition of rice alpha-glucosidase assessed as reduction of p-nitrophenol release using p-nitrophenyl-glycoside as substrate at 1000 uM by spectrophotometric analysis
[3] = test system: Helix pomatia; experiment: Inhibition of snail beta-mannosidase assessed as reduction of p-nitrophenol release using p-nitrophenyl-glycoside as substrate at 1000 uM by spectrophotometric analysis
[4] = test system: Saccharomyces cerevisiae; experiment: Inhibition of yeast alpha-glucosidase assessed as reduction of p-nitrophenol release using p-nitrophenyl-glycoside as substrate at 1000 uM by spectrophotometric analysis
[5] = test system: Prunus dulcis; experiment: Inhibition of almond beta-glucosidase assessed as reduction of p-nitrophenol release using p-nitrophenyl-glycoside as substrate at 1000 uM by spectrophotometric analysis
[6] = species on record: Bos taurus; experiment: Inhibition of bovine liver beta-glucuronidase assessed as reduction of p-nitrophenol release using p-nitrophenyl-glycoside as substrate at 1000 uM by spectrophotometric analysis
[7] = Inhibition of bovine liver beta-galactosidase assessed as reduction of p-nitrophenol release using p-nitrophenyl-glycoside as substrate by spectrophotometric analysis; set-up: species or system Bos taurus
[8] = molecular target: Alpha-galactosidase (Coffea arabica) (UniProt Q42656); experiment: Inhibition of coffee beans alpha-galactosidase assessed as reduction of p-nitrophenol release using p-nitrophenyl-glycoside as substrate at 1000 uM by spectrophotometric analysis
[9] = Inhibition of human lysosomal beta-glucosidase assessed as reduction of p-nitrophenol release using p-nitrophenyl-glycoside as substrate by spectrophotometric analysis; format: subcellular, Lysosome
[10] = molecular target: Sucrase-isomaltase, intestinal (Rattus norvegicus, UniProt P23739); experiment: Inhibition of rat small intestinal sucrase assessed as reduction of p-nitrophenol release using p-nitrophenyl-glycoside as substrate by spectrophotometric analysis; format: tissue-based, Small intestine
[11] = species on record: Bos taurus; experiment: Inhibition of bovine liver beta-glucosidase assessed as reduction of p-nitrophenol release using p-nitrophenyl-glycoside as substrate at 1000 uM by spectrophotometric analysis
[12] = molecular target: Lysosomal alpha-glucosidase (Rattus norvegicus) (UniProt Q6P7A9); experiment: Inhibition of rat small intestinal maltase assessed as reduction of D-glucose release using maltose as substrate at 1000 uM by colorimetric analysis; format: tissue-based; details: Small intestine
[13] = Inhibition of Escherichia coli beta-glucuronidase assessed as reduction of p-nitrophenol release using p-nitrophenyl-glycoside as substrate by spectrophotometric analysis
[14] = molecular target: T1, Tissue alpha-L-fucosidase (Bos taurus) (UniProt Q2KIM0); experiment: Inhibition of bovine kidney alpha-L-fucosidase assessed as reduction of p-nitrophenol release using p-nitrophenyl-glycoside as substrate at 1000 uM by spectrophotometric analysis; format: tissue-based
T1 sequence (whole entry): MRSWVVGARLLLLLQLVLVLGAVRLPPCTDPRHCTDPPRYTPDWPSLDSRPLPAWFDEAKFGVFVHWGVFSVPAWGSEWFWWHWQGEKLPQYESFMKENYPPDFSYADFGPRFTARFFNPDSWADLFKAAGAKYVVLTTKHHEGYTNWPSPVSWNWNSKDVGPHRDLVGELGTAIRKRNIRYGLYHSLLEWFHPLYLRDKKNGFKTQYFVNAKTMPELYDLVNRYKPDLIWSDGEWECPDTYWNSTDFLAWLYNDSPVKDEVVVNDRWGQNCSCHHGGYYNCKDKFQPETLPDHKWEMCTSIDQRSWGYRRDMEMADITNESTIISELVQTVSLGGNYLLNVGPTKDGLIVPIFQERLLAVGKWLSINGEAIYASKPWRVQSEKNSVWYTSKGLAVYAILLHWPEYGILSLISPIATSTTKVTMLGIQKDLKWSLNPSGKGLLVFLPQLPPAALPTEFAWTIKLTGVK

[15] = test system: Aspergillus niger; experiment: Inhibition of Aspergillus niger amyloglucosidase assessed as reduction of p-nitrophenol release using p-nitrophenyl-glycoside as substrate at 1000 uM by spectrophotometric analysis
[16] = molecular target: T2, Alpha-mannosidase (Canavalia ensiformis) (UniProt C0HJB3); experiment: Inhibition of jack bean alpha-mannosidase assessed as reduction of p-nitrophenol release using p-nitrophenyl-glycoside as substrate at 1000 uM by spectrophotometric analysis
T2 sequence (whole entry): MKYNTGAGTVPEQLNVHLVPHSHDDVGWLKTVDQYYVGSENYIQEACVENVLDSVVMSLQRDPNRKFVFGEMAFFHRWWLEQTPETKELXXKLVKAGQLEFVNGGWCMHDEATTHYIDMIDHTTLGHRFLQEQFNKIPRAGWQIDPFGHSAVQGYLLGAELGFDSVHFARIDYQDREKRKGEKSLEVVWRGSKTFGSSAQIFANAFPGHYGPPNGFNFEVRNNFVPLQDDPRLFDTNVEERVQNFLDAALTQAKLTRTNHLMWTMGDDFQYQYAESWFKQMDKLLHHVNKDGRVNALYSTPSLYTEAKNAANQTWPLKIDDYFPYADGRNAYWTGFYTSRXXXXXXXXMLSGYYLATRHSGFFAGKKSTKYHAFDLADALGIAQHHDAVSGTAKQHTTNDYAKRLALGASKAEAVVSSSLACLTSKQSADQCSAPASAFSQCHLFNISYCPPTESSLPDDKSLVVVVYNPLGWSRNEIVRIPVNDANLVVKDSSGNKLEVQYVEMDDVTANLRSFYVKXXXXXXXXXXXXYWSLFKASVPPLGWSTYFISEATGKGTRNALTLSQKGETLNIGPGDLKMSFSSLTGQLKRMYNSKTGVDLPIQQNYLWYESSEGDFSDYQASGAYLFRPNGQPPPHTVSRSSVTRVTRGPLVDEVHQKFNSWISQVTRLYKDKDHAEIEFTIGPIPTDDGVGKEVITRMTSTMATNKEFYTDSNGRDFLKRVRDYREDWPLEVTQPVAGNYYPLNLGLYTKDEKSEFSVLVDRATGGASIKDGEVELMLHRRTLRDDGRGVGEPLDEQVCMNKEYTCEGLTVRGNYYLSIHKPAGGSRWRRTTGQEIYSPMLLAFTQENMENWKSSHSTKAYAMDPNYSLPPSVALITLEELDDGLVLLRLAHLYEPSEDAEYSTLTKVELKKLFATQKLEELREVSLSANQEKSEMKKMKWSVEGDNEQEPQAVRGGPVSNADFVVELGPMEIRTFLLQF

[17] = molecular target: Lysosomal alpha-glucosidase (Homo sapiens) (UniProt P10253); experiment: Inhibition of human lysosomal alpha-glucosidase assessed as reduction of p-nitrophenol release using p-nitrophenyl-glycoside as substrate at 1000 uM by spectrophotometric analysis; details: Lysosome
[18] = species on record: Sus scrofa; experiment: Inhibition of porcine kidney alpha-trehalase assessed as reduction of p-nitrophenol release using p-nitrophenyl-glycoside as substrate at 1000 uM by spectrophotometric analysis; format: tissue-based
[19] = molecular target: T3, Lysosomal acid glucosylceramidase (Homo sapiens, UniProt P04062); experiment: Inhibition of human GCase assessed as reduction of 4-methylumbelliferone liberation using 4-methylumbelliferyl-beta-glucopyranoside as substrate preincubated with enzyme for 45 mins followed by substrate addition and measured after 30 mins by fluorescence spectrophotometry
T3 sequence (P04062 whole entry): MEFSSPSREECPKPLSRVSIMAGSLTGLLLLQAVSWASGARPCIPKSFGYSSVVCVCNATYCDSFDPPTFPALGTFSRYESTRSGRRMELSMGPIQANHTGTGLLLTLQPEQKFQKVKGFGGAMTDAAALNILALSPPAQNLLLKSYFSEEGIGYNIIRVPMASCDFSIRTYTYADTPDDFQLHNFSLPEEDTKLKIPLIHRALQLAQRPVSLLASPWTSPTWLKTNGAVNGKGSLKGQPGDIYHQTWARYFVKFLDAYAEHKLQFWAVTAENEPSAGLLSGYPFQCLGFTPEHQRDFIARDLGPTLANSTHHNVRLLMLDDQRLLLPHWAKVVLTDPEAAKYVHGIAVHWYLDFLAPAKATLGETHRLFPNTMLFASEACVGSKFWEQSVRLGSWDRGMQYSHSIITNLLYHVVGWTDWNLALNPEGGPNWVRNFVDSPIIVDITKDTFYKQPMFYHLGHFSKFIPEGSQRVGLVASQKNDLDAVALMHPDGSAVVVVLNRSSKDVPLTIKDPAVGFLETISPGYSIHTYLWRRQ

[20] = Inhibition of almond beta-glucosidase assessed as reduction of p-nitrophenol release using p-nitrophenyl-glycoside as substrate by spectrophotometric analysis; set-up: species or system Prunus dulcis
[21] = species on record: Bos taurus; experiment: Inhibition of bovine liver beta-galactosidase assessed as reduction of p-nitrophenol release using p-nitrophenyl-glycoside as substrate at 1000 uM by spectrophotometric analysis
[22] = test system: Escherichia coli; experiment: Inhibition of Escherichia coli beta-glucuronidase assessed as reduction of p-nitrophenol release using p-nitrophenyl-glycoside as substrate at 1000 uM by spectrophotometric analysis
[23] = molecular target: T3, Lysosomal acid glucosylceramidase; experiment: Inhibition of human GCase
[24] = Inhibition of rice alpha-glucosidase assessed as reduction of p-nitrophenol release using p-nitrophenyl-glycoside as substrate by spectrophotometric analysis; set-up: species or system Oryza sativa

Sequence of Lysosomal alpha-glucosidase (Rattus norvegicus) (Q6P7A9 whole entry): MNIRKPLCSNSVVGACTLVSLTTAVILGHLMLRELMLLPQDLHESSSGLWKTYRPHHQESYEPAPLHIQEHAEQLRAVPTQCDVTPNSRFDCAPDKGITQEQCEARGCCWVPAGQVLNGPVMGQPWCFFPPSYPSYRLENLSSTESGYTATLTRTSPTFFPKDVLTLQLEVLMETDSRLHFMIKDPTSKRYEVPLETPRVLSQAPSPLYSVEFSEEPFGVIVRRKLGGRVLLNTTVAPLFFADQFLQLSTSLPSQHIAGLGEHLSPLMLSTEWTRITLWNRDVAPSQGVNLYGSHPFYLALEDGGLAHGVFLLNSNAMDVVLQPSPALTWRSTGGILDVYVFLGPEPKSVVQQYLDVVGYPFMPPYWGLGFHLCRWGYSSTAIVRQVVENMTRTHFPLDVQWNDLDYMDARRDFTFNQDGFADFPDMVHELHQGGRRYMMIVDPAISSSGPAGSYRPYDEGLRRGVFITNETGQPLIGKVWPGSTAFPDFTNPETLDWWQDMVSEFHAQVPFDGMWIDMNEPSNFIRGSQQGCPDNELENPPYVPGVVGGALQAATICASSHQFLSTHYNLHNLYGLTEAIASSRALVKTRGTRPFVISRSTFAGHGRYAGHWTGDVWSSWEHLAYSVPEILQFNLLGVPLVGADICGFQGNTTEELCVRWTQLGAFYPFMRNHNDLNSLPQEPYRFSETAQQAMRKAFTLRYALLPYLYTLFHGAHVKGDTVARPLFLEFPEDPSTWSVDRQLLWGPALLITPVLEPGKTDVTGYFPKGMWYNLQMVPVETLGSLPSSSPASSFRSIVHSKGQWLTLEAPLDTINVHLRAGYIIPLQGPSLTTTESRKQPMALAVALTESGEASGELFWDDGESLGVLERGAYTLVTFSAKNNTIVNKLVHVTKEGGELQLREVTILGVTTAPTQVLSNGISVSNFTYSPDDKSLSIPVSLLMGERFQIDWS
Sequence of Sucrase-isomaltase, intestinal (P23739 1-1013 limits assumed): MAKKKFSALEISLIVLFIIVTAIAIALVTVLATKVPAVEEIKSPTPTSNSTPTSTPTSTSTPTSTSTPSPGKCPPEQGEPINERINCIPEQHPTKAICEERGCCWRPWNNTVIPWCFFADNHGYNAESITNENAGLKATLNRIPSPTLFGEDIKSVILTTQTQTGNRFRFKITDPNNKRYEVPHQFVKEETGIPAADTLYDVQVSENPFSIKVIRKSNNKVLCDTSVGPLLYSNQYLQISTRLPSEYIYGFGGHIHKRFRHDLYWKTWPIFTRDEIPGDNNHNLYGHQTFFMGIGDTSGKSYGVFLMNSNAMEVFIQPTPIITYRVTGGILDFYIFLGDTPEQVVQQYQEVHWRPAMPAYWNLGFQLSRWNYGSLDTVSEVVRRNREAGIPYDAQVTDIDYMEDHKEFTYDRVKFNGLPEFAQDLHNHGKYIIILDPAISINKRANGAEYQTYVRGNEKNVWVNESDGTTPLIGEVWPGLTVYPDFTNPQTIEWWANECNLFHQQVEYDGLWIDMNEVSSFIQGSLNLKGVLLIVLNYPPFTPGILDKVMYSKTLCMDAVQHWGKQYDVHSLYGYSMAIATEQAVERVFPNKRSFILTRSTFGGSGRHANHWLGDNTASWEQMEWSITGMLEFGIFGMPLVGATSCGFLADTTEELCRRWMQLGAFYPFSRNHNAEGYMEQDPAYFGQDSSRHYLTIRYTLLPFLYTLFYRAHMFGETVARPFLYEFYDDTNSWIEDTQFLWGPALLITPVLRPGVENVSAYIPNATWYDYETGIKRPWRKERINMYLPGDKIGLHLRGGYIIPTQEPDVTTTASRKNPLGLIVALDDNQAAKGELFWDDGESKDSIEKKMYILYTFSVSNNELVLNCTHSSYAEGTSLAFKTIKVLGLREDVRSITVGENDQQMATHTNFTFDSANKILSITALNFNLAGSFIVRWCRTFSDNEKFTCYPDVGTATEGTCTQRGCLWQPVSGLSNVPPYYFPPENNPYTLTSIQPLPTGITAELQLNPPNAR
Sequence of Sucrase-isomaltase, intestinal (P23739 1014-1841 limits assumed): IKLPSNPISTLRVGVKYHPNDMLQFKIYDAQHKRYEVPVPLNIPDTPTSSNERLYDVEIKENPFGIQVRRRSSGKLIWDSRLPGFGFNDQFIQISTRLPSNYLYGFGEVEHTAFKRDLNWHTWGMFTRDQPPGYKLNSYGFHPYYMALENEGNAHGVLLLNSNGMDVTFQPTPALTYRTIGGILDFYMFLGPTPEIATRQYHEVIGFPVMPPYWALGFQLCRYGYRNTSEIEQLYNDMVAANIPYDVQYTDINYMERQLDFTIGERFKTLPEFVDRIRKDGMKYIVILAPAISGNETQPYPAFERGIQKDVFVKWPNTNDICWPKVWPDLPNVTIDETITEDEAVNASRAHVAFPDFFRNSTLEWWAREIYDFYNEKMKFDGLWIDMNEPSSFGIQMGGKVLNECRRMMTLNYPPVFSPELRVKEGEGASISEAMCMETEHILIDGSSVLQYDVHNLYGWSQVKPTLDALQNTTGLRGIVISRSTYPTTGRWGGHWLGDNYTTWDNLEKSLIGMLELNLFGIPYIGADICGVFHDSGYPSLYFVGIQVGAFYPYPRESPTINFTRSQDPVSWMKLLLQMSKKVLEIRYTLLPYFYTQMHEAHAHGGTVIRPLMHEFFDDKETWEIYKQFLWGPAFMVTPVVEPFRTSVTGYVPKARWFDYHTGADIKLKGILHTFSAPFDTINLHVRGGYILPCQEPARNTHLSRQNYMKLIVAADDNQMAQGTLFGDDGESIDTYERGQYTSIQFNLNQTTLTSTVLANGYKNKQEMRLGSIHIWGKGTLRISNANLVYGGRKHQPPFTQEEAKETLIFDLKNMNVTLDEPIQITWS
Sequence of Alpha-galactosidase (Coffea arabica) (Q42656 16-378 limits assumed): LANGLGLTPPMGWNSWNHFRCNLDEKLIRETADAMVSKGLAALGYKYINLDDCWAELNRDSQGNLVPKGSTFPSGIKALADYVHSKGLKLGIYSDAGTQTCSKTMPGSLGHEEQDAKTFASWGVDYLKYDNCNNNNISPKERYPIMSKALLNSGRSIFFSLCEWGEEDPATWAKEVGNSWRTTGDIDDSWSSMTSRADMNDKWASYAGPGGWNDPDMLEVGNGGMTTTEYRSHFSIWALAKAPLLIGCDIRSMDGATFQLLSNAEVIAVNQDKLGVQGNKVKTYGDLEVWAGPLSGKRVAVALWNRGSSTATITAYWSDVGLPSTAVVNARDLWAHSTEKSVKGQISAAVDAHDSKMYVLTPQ

Compound	inhibition [1] [%]	inhibition [3] [%]	inhibition [4] [%]	inhibition [6] [%]	inhibition [8] [%]	IC50 [9] [µM]	IC50 [10] [µM]	inhibition [11] [%]	inhibition [14] [%]	inhibition [15] [%]	inhibition [16] [%]	inhibition [17] [%]	inhibition [18] [%]	IC50 [19] [µM]	other results
Cc1ccc([C@@H]2NC[C@H](O)[C@H]2O)cc1	2.3	2.2	5.3	0.3	0	8.7	389	46.4	0	2.3	0.4	4.8	17.6		inhibition [2]: 15.8%; inhibition [5]: 11%; IC50 [7]: 470 µM; inhibition [12]: 23.1%; IC50 [13]: 610 µM
CCCCCCCCCC[C@H]1N[C@H](CO)[C@@H](O)[C@@H]1O														1.9	
O[C@H]1[C@H](O)CN[C@@H]1CCCc1ccccc1	8.3	5.6	28.5	0.3	0	3.1	264	42.1	6.2	0	20.6	26.5	5.3		inhibition [2]: 38%; IC50 [20]: 565 µM; IC50 [7]: 578 µM; IC50 [13]: 910 µM
O[C@@H]1[C@@H](O)CN[C@H]1c1ccccc1 [listing 1 of 3 here]	1.8	1.1	0.3	15	2.6			31.7	0	0	2	24.6	5.7		inhibition [21]: 49%; inhibition [5]: 3.4%; inhibition [22]: 8.5%; inhibition [12]: 16.5%
CCCCCCCCCCCCC[C@H]1N[C@H](CO)[C@@H](O)[C@@H]1O														0.77	
CCCCCCCCCC1NC[C@@H](O)[C@H](O)[C@H]1O (stereo partly drawn)															IC50 [23]: 0.0068 µM
CCCCCCCCCCC[C@H]1N[C@H](CO)[C@@H](O)[C@@H]1O														2.3	
O[C@@H]1[C@@H](O)CN[C@H]1c1ccccc1 [listing 2 of 3 here]															IC50 [23]: 26.5 µM
O[C@@H]1[C@@H](O)CN[C@H]1c1ccccc1 [listing 3 of 3 here]						22	603								IC50 [24]: 560 µM
CCCCCCC[C@H]1N[C@H](CO)[C@@H](O)[C@@H]1O														38	
CCCCCCCCC[C@H]1N[C@H](CO)[C@@H](O)[C@@H]1O														3.3	
CCCCC[C@H]1N[C@H](CO)[C@@H](O)[C@@H]1O														34	
CCCCCC[C@H]1N[C@H](CO)[C@@H](O)[C@@H]1O														30	
CCCCCCCC[C@H]1N[C@H](CO)[C@@H](O)[C@@H]1O														6.2	
O[C@H]1[C@H](O)CN[C@@H]1c1ccc(F)cc1	0	4.8	5.6	2	2	6.2	339	29	0	0	0.8	13.4	1.6		inhibition [21]: 39.9%; inhibition [2]: 47.3%; inhibition [5]: 15%; inhibition [22]: 43.4%; inhibition [12]: 14%
CCCCCCO[C@H]1CNC[C@@H](O)[C@@H]1O															IC50 [23]: 0.009 µM
Cc1ccc([C@H]2NC[C@@H](O)[C@@H]2O)cc1	2.8	1.9	11	0.3	0	3.4	1210	38.2	4.2	0	0	15	0		inhibition [2]: 22.8%; inhibition [5]: 13.5%; IC50 [7]: 602 µM; inhibition [12]: 24.6%; IC50 [13]: 269 µM
O[C@@H]1[C@@H](O)CN[C@H]1c1ccc(F)cc1	8.3	2.2	8.6	0	16.6	13	117	14.8	0	0	1.2	30	6.5		inhibition [21]: 25.2%; inhibition [2]: 41.8%; inhibition [5]: 12.6%; inhibition [22]: 26.8%; inhibition [12]: 25.6%
